Experimental findings from patent US20200131249A1, “NOVEL PROTEINS AND USE THEREOF” (EVOLVERITAS KFT., priority 2017, published 2020) are described below.

One experiment concerns classical pathway. Briefly: C3 deposition ELISA with diluted rat serum on IgG coated plates. Format: biochemical. The conditions noted are these: final concentrations as high as 50 μM; 50-fold diluted rat serum. Here is the method: ELISA-based complement classical and alternative pathway activation tests were performed on IgG or lipopolysaccharide (LPS) coated plates, respectively, using diluted individual (not pooled) rat serum. In these tests, inhibitory efficiencies of the protein of SEQ ID NO: 14 and SGMI-2 were compared and C3 deposition was used for quantification of the complement activation.
96-well Greiner high binding ELISA plates were coated with 100 μl/well 10 μg/ml IgG (Sigma—12511) dissolved in coating buffer (50 mM sodium-carbonate pH 9.6) overnight at 4° C. Control wells contained coating buffer alone. Wells were blocked for 2 h at 37° C. with 200 μl/well 10 mg/ml bovine serum albumin (BSA) dissolved in 50 mM Tris pH 7.4, 150 mM NaCl, 0.1% Tween-20 buffer. Serial dilutions of the inhibitors were made in 10 mM HEPES pH 7.4, 150 mM NaCl, 5 mM CaCl2, 5 mM MgCl2, 0.1% Tween-20 buffer (serum dilution buffer). Rat serum was thawed on ice and diluted 25-fold in serum dilution buffer. The diluted inhibitor samples were mixed with the 25-fold diluted rat serum in 1:1 volume ratio resulting in 50-fold diluted rat serum-inhibitor samples. The samples were incubated at room temperature for 30 minutes. […] The 490 nm absorbance values were recorded using a PerkinElmer EnSpire multimode plate reader. Four parallels were measured for each data point.
In general terms: An ELISA detects its analyte on a solid surface through an enzyme-linked reagent.

The target of a further experiment is T1, human MASP-1 (Homo sapiens, UniProt P48740).
T1 construct: catalytic enzyme fragments containing the three C-terminal domains: CCP1-CCP2-SP
T1 sequence (P48740 449-699 limits assumed): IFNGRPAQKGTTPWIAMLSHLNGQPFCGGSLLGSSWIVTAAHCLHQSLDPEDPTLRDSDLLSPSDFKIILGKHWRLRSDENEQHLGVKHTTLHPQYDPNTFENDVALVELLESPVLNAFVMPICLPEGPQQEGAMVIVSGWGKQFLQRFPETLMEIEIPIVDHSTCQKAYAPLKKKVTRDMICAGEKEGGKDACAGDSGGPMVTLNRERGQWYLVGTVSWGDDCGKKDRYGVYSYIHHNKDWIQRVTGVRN
T1 sequence (P48740 298-448 partner limits assumed): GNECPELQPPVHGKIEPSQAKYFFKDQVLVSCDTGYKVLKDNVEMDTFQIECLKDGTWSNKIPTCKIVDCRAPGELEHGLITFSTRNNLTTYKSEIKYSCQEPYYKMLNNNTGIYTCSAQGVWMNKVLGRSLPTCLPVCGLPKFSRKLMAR
Briefly: KI determination on human MASP-1 catalytic fragment. It is filed as biochemical. Details: key to KI on human MASP-1: N.E.: not effective. The note with it: catalytic fragment; Z-L-Lys-SBzl. Here is the method: The inhibition equilibrium constant (KI) of all four inhibitor variants produced was measured on human MASP-2 and rat MASP-2. Additionally, KI values were measured also on human MASP-1 and human MASP-3 to assess the specificity of the inhibitors amongst the MASP enzymes. KI values of the inhibitors on bovine trypsin, a pancreatic model enzyme was also measured.
For determining the KI of the inhibitors on MASP enzymes we used catalytic enzyme fragments containing the three C-terminal domains: CCP1-CCP2-SP. The synthetic substrate used in the measurements was Z-L-Lys-SBzl hydrochloride (Sigma, C3647), from which a 10 mM stock solution was prepared. The reactions were performed in a volume of 0.2 ml at room temperature in a buffer consisting of 20 mM HEPES; 145 mM NaCl; 5 mM CaCl2; 0.05% Triton-X100. The substrate cleaved by the enzyme entered into a reaction with the 5,5′-Dithiobis(2-nitrobenzoic acid) (DTNB, Ellman's reagent, Sigma—D8130) auxiliary substrate present in the solution in 2-fold excess to Z-L-Lys-SBzl. The release of the chromophore group created in this way was monitored via the change of absorbance at 410 nm using a BioTek Synergy H4 multimode microplate reader.
A dilution sequence was prepared from the individual inhibitors, the enzyme was added to it, and it was incubated for 2 hours at room temperature. The samples were transferred on a 96-well microtiter plate (Nunc 269620). The reactions were started by adding the mixture of the substrate and the auxiliary substrate to the samples. The concentration of the substrate and the length of the measuring period were chosen so that under the given conditions the enzyme should consume less than 10% of the substrate. In this case we used 250 μM Z-L-Lys-SBzl and 500 μM DTNB in the reactions. In the course of measuring, a method developed for the characterisation of tight-binding inhibitors was used (Empie, 1982). The concentration of the product was measured as a function of reaction time. The slope of the straight line determined for the initial phase of the reaction was normalised with the slope obtained for the uninhibited enzyme reaction, and this value was multiplied with the total enzyme concentration. As a result of this we obtained the free enzyme concentration, which was plotted as a function of the total inhibitor concentration and the Ki value was determined according to the following equation:
E=y=E0−(E0+x+Ki−(((E0+x+Ki)^2)−4*E0*x)^(½))/2,
where E is the free (uninhibited) enzyme concentration, and E0 is the total enzyme concentration. The stock concentration of the inhibitors was determined by titration with bovine trypsin of known concentration. The results were calculated as the average of parallel measurements.

Where no end group is shown, it is not given here.

Take “SGMI-2 (GSGEVTCEPGTTFKDKCNTCRCGSDGKSAVCTKLWCNQ; Synthetic protein of insect origin) [reference compound]”: the “inhibition of the classical pathway in rat serum” value in the experiment with classical pathway is reported as “neither the protein of SEQ ID NO: 14 nor SGMI-2 were able to inhibit”. The “KI on human MASP-1” value with human MASP-1 is listed as “N.E”.
In the same order, the values of “SEQ ID NO: 14: TFPI-D2 variant protein with inhibitor loop PCRAVKR (SEQ ID NO: 4) (KPDFCFLEEDPGPCRAVKRRYFYNNQTKQCERFKYGGCLGNMNNFETLEECKNICEDG; ends and bridges not checked; cysteine pairing not given here)” are “neither the protein of SEQ ID NO: 14 nor SGMI-2 were able to inhibit” and “N.E”.
